Measurements reported in patent US12702660B2, “Method for treating cancer with an oral dosage form of an estrogen receptor-alpha inhibitor” (Eisai R&D Management Co., Ltd., priority 2019, dated 2026).
Where two headings read alike, the source gives them in different places.

Experiment: Plasma PK of H3B-6545 capsules in fasted patients, phase 1 dose escalation
Type: in vivo, human
Conditions: for Vd / Vd/F / Tmax / AUC(0-inf) / Cmax / half-life / AUC(0-t): female, human, plasma, oral; for Vd / Vd/F / AUC(0-inf) / Cmax / half-life / AUC(0-t): Geometric Mean (GeoCV %); for Vd: read-out: Vss; for Vd/F: read-out: Vz/F
Experimental: Blood samples were collected at the planned time points from each patient and centrifuged. The plasma portion of each sample was then transferred to a K2EDTA tube, which was then shipped to a bioanalytical lab for concentration measurement using LC-MS/MS. The concentration data were then analyzed using Phoenix® WinNonlin software to obtain PK parameters. The obtained PK parameters were further summarized using analytical software.
Blood samples (approximately 5 mL each) were collected from human patients pre-dose and at various hourly time points post-dose. Plasma concentrations of H3B-6545 were determined using a validated high-performance liquid chromatography/tandem mass spectrometry (LC-MS/MS) method. The lower limit of quantification was 0.100 ng/mL.
The PK Analysis Set included subjects who received H3B-6545 drug product in capsules or tablets and had sufficient evaluable plasma concentration data to derive at least 1 primary PK parameter in each treatment. Plasma concentrations of H3B-6545 (as free base) were tabulated and summarized at each nominal time using descriptive statistics (number of subjects, arithmetic mean with standard deviation [SD], coefficient of variation [CV %], geometric mean, median, minimum, and maximum) as appropriate. Individual and mean (±SD) plasma concentration-time profiles were provided for each treatment.
Pharmacokinetic parameters of H3B-6545 were calculated using noncompartmental methods, using an appropriate model for plasma data and extravascular administration. The PK parameters included, but were not limited to, area under the curve to the time of the last quantifiable concentration (AUC0-t), maximum concentration (Cmax), and time at which the maximum concentration occurred (tmax). If data permitted, the area under the plasma concentration-time curve extrapolated to infinity (AUC0-inf), terminal elimination half-life (t1/2), apparent total body clearance (CL/F), total systemic clearance after oral administration at steady state (CLss/F), apparent volume of distribution during the terminal phase (Vz/F), apparent steady-state volume of distribution (Vss), accumulation ratio for Cmax (RCmax) and accumulation ratio of AUC0-24 (RAUC) were also derived.
Methods were used to analyze whether H3B-6545 inactivates both wild-type and mutant ERα by targeting cysteine 530 and enforcing a unique antagonist conformation. Methods: Women with locally advanced or metastatic HR+BC are treated (tx) with H3B-6545 drug product administered once daily orally by capsule over a 28 day cycle after progression on at least one hormonal therapy and at least one additional therapy/regimen. Dose escalation uses a 3+3 design with the option to backfill previously cleared doses and allows for intrapatient dose escalation. This example explored the safety, pharmacokinetics and pharmacodynamics of H3B-6545 in women with HR+BC to identify a recommended subsequent dose for testing.
• H3B-6545 administered once daily orally over a 28 day cycle. • Dose escalation using a standard 3+3 study design using dose cohorts of 100, 200, 300, 450, and 600 mg QD. • Patients allowed to backfill previously cleared doses. • Intra-patient dose escalation allowed after completion of Cycle 3. Results (as of Apr. 20, 2019) Patient Population: • 46 patients were treated with H3B-6545 at doses of 100 to 600 mg QD. • 42 (91.3%) patients received a prior CDK4/6 inhibitor and 32 (69.6%) prior fulvestrant. • 30 (65.2%) patients received ≥3 prior anti-cancer therapy lines in the advanced/metastatic setting.
The clinical trial of Example 3 was continued and PK evaluations (of this Example 4) were made at a later date on the basis of a larger patient population. The summary of Tables 1 in Analysis of Pharmacokinetic (PK) of Capsules in Fasted Patients and 2 show PK parameters and profiles of human patients receiving capsules of H3B-6545 drug product prepared as in Example 1. […]

[1] = 100 mg, Cycle 1 Day 1, 100 mg QD capsules, fasted patients
[2] = 100 mg, Cycle 1 Day 15, 100 mg QD capsules, fasted patients
[3] = 200 mg, Cycle 1 Day 1, 200 mg QD capsules, fasted patients
[4] = 200 mg, Cycle 1 Day 15, 200 mg QD capsules, fasted patients
[5] = 300 mg, Cycle 1 Day 1, 300 mg QD capsules, fasted patients
[6] = 300 mg, Cycle 1 Day 15, 300 mg QD capsules, fasted patients
[7] = 450 mg, Cycle 1 Day 1, 450 mg QD capsules, fasted patients
[8] = 450 mg, Cycle 1 Day 15, 450 mg QD capsules, fasted patients
[9] = 600 mg, Cycle 1 Day 1, 600 mg QD capsules, fasted patients
[10] = 600 mg, Cycle 1 Day 15, 600 mg QD capsules, fasted patients

## CN(C)C(=O)/C=C/CNCCOc1ccc(/C(=C(/CC(F)(F)F)c2ccccc2)c2ccc3[nH]nc(F)c3c2)cn1 [H3B-6545, (E)-N,N-dimethyl-4-[2-[5-[(Z)-4,4,4-trifluoro-1-(3-fluoro-1H-indazol-5-yl)-2-phenylbut-1-enyl]pyridin-2-yl]oxyethylamino]but-2-enamide]
[1]
  Vd: 713 L
  Vd/F: 689 L
100 mg, Cycle 1 Day 1, 100 mg QD capsules, fasted patients, Median (Min, Max)
  Tmax: 3.05 h
[2]
  AUC(0-inf): 2950 ng·h/mL
  Cmax: 287 ng/mL
  half-life: 11.5 h
  Vd: 679 L
  Vd/F: 731 L
100 mg, Cycle 1 Day 15, 100 mg QD capsules, fasted patients, read-out: AUC0-24
  AUC(0-t): 2560 ng·h/mL
100 mg, Cycle 1 Day 15, 100 mg QD capsules, fasted patients, read-out: AUC0-t
  AUC(0-t): 2590 ng·h/mL
100 mg, Cycle 1 Day 15, 100 mg QD capsules, fasted patients, Median (Min, Max)
  Tmax: 2 h
[3]
  AUC(0-inf): 5270 ng·h/mL
  Cmax: 473 ng/mL
  half-life: 9.73 h
  Vd: 567 L
  Vd/F: 532 L
200 mg, Cycle 1 Day 1, 200 mg QD capsules, fasted patients, read-out: AUC0-24
  AUC(0-t): 4760 ng·h/mL
200 mg, Cycle 1 Day 1, 200 mg QD capsules, fasted patients, read-out: AUC0-t
  AUC(0-t): 4810 ng·h/mL
200 mg, Cycle 1 Day 1, 200 mg QD capsules, fasted patients, Median (Min, Max)
  Tmax: 5 h
[4]
  AUC(0-inf): 7950 ng·h/mL
  Cmax: 605 ng/mL
  half-life: 10.1 h
  Vd: 456 L
  Vd/F: 455 L
200 mg, Cycle 1 Day 15, 200 mg QD capsules, fasted patients, read-out: AUC0-24
  AUC(0-t): 6870 ng·h/mL
200 mg, Cycle 1 Day 15, 200 mg QD capsules, fasted patients, read-out: AUC0-t
  AUC(0-t): 6910 ng·h/mL
200 mg, Cycle 1 Day 15, 200 mg QD capsules, fasted patients, Median (Min, Max)
  Tmax: 2.17 h
[5]
  AUC(0-inf): 11100 ng·h/mL
  Cmax: 898 ng/mL
  half-life: 9.58 h
  Vd: 416 L
  Vd/F: 374 L
300 mg, Cycle 1 Day 1, 300 mg QD capsules, fasted patients, read-out: AUC0-24
  AUC(0-t): 9480 ng·h/mL
300 mg, Cycle 1 Day 1, 300 mg QD capsules, fasted patients, read-out: AUC0-t
  AUC(0-t): 9520 ng·h/mL
300 mg, Cycle 1 Day 1, 300 mg QD capsules, fasted patients, Median (Min, Max)
  Tmax: 4 h
[6]
  AUC(0-inf): 12700 ng·h/mL
  Cmax: 1200 ng/mL
  half-life: 8.52 h
  Vd: 373 L
  Vd/F: 348 L
300 mg, Cycle 1 Day 15, 300 mg QD capsules, fasted patients, read-out: AUC0-24
  AUC(0-t): 12000 ng·h/mL
300 mg, Cycle 1 Day 15, 300 mg QD capsules, fasted patients, read-out: AUC0-t
  AUC(0-t): 12100 ng·h/mL
300 mg, Cycle 1 Day 15, 300 mg QD capsules, fasted patients, Median (Min, Max)
  Tmax: 4 h
[7]
  AUC(0-inf): 23000 ng·h/mL
  Cmax: 1500 ng/mL
  half-life: 11 h
  Vd: 343 L
  Vd/F: 311 L
450 mg, Cycle 1 Day 1, 450 mg QD capsules, fasted patients, read-out: AUC0-24
  AUC(0-t): 16200 ng·h/mL
450 mg, Cycle 1 Day 1, 450 mg QD capsules, fasted patients, read-out: AUC0-t
  AUC(0-t): 16200 ng·h/mL
450 mg, Cycle 1 Day 1, 450 mg QD capsules, fasted patients, Median (Min, Max)
  Tmax: 4 h
[8]
  AUC(0-inf): 17400 ng·h/mL
  Cmax: 1420 ng/mL
  half-life: 9.81 h
  Vd: 489 L
  Vd/F: 466 L
450 mg, Cycle 1 Day 15, 450 mg QD capsules, fasted patients, read-out: AUC0-24
  AUC(0-t): 14000 ng·h/mL
450 mg, Cycle 1 Day 15, 450 mg QD capsules, fasted patients, read-out: AUC0-t
  AUC(0-t): 14100 ng·h/mL
450 mg, Cycle 1 Day 15, 450 mg QD capsules, fasted patients, Median (Min, Max)
  Tmax: 4 h
[9]
  AUC(0-inf): 32900 ng·h/mL
  Cmax: 2050 ng/mL
  half-life: 13.1 h
  Vd: 366 L
  Vd/F: 344 L
600 mg, Cycle 1 Day 1, 600 mg QD capsules, fasted patients, read-out: AUC0-24
  AUC(0-t): 22400 ng·h/mL
600 mg, Cycle 1 Day 1, 600 mg QD capsules, fasted patients, read-out: AUC0-t
  AUC(0-t): 22300 ng·h/mL
600 mg, Cycle 1 Day 1, 600 mg QD capsules, fasted patients, Median (Min, Max)
  Tmax: 4 h
[10]
  AUC(0-inf): 39700 ng·h/mL
  Cmax: 1680 ng/mL
  half-life: 21.8 h
  Vd: 1100 L
  Vd/F: 1030 L
600 mg, Cycle 1 Day 15, 600 mg QD capsules, fasted patients, read-out: AUC0-24
  AUC(0-t): 18400 ng·h/mL
600 mg, Cycle 1 Day 15, 600 mg QD capsules, fasted patients, read-out: AUC0-t
  AUC(0-t): 18700 ng·h/mL
600 mg, Cycle 1 Day 15, 600 mg QD capsules, fasted patients, Median (Min, Max)
  Tmax: 4 h
As of 10 Dec. 2018, 100 to 450 mg/day capsules
  Tmax: 2 to 4 h
As of Apr. 20, 2019, 100 to 600 mg QD
  Tmax: 2 to 4 h
Once daily dosing
  plasma concentration, C1D1 versus C1D15: similar
